Patent US20080075677A1, “Antioxidant Complex and a Cosmetic and Pharmaceutical Composition Comprising Said Complex” (priority 2004, published 2008)

Experiment: DPPH free-radical test of antioxidant potential
Assay type: biochemical
Excerpt: Objective: analyzing the antioxidant potential of the complex of the present invention in comparison with other known antioxidant system compositions. A solution of 0.004% of DPPH (diphenyl […] hydrazyl) in ethanol was used. The action of DPPH on ethanol generates free radicals, forming colorful aducts, which are spectrophotometrically detected. Further, a solution of BHT in ethanol was used and its solutions described in the table below. Tubes with the DPPH solution and the compositions of the above products were prepared.

Structure (SMILES): O=C1O[C@H]([C@@H](O)CO)C(O)=C1O [vitamin C, ascorbic acid]
- effect of vitamin C on the potential of the antioxidant complex at determined concentrations (at determined concentrations of vitamin C): causes reduction of said potential
- effect of the presence of vitamin C on the potential of the antioxidant complex (vitamin C added to the antioxidant complex composition): does not improve the potential
